{"source": "patent US8581001B2", "about": "“Metformin-cysteine prodrug” (Codman & Shurtleff, priority 2010, dated 2013)", "origin": "cited, not measured here", "key": {"human patients": {"tested_on": "human patients", "conditions": "human patients (NASH)"}, "[1]": {"assay": "not given", "remark": "listed apart in the source"}, "LAT1": {"molecular_target": "LAT1 (Homo sapiens, UniProt Q01650)", "sequence (Q01650 whole entry, species assumed, one chain of several)": "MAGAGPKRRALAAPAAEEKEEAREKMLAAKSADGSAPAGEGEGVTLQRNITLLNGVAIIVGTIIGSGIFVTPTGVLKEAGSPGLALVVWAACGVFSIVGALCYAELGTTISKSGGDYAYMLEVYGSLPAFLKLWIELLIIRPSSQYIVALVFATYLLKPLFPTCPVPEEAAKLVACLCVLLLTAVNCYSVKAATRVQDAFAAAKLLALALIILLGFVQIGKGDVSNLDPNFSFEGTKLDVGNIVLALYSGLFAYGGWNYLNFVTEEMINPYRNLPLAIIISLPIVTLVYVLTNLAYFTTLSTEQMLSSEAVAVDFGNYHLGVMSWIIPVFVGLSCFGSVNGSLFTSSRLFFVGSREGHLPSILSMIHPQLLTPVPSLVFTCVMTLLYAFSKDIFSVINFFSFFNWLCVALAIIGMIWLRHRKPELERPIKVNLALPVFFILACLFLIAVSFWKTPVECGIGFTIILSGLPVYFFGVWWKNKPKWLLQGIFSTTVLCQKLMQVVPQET"}, "LAT2": {"molecular_target": "T1, LAT2 (Homo sapiens, UniProt Q9UHI5)", "T1 sequence (Q9UHI5 1-535)": "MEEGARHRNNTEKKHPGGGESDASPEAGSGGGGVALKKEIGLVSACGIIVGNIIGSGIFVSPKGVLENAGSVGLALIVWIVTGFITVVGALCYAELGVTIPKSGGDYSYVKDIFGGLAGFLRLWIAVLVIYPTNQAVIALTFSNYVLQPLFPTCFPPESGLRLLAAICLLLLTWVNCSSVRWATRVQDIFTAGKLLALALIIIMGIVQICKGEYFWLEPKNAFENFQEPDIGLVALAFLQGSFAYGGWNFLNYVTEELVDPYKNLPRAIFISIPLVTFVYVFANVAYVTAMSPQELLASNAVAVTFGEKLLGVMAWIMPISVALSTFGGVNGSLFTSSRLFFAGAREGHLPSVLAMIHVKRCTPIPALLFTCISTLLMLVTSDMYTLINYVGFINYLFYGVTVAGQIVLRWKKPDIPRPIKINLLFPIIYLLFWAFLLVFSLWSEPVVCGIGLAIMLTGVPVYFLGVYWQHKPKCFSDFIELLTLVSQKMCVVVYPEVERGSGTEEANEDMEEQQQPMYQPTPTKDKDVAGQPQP", "T1 sequence (P08195 1-529 partner)": "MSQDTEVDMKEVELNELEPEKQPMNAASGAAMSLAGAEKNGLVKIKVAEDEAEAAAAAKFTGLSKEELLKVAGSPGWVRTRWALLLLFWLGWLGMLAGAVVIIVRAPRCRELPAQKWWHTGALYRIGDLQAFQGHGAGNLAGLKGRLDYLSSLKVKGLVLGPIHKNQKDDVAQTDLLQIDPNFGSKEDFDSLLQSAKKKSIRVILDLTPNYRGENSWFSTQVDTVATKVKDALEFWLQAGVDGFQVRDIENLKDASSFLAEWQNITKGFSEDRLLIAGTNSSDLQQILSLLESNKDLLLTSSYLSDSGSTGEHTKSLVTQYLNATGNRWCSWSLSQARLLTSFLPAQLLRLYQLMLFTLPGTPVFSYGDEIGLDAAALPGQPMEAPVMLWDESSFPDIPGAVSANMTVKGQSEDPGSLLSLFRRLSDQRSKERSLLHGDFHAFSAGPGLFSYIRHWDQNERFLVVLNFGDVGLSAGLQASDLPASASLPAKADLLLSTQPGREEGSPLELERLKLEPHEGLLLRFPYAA"}}, "data": [{"smiles": "N[C@@H](CCC(=O)N[C@@H](CSSC[C@H](N)C(=O)O)C(=O)NCC(=O)O)C(=O)O", "note": "[Cy-LLGSH]", "values": [{"measurement": "protection against acetaminophen-induced hepatotoxicity", "setting": "mice", "result": "highly effective"}]}, {"smiles": "CC(=O)N[C@@H](CS)C(=O)O", "note": "[NAC, n-acetylcysteine]", "values": [{"measurement": "amelioration of the complications of non-alcoholic fatty liver disease", "setting": "human patients", "result": "neither metformin nor NAC alone provided any significant benefits"}]}, {"smiles": "CN(C)C(=N)N=C(N)N", "note": "[metformin]", "values": [{"measurement": "absorption in the colon", "setting": "colon", "result": "poorly absorbed"}, {"measurement": "uptake in the small intestine", "setting": "small intestine", "result": "effectively taken up"}, {"measurement": "window in which metformin is above ½ of its Cmax", "setting": "[1]; FIG. 4 of US 2007-0154548", "result": "about 6 hours"}, {"measurement": "time window for effective plasma concentrations", "setting": "[1]; in vivo", "result": "about 6 hours"}, {"measurement": "amelioration of the complications of non-alcoholic fatty liver disease", "setting": "human patients", "result": "neither metformin nor NAC alone provided any significant benefits"}]}, {"smiles": "N[C@@H](CSN=O)C(=O)O", "note": "[s-nitroso-L-cysteine]", "values": [{"measurement": "transport by LAT1 transporter", "setting": "LAT1", "result": "efficiently transported"}, {"measurement": "transport by LAT2 transporter", "setting": "LAT2", "result": "efficiently transported"}]}]}
